Assay results as given in ChEMBL document CHEMBL5150052, “Riboflavin-Promoted In Situ Photoactivation of Dihydroalkaloid Prodrugs for Cancer Therapy” (J Med Chem, 2022).
Active and inactive are the calls of the source.

What was measured:
A-375 [1] = assay: In vivo antitumor activity against human A-375 cells xenografted in mouse model assessed as potentiation of DHCHE-mediated anticancer activity by measuring increase in vacuole and condensed nuclei at 1 mg/kg administered intratumoral injection for 14 days by […]; assay type: functional, organism-based; details: route it(Intratumoral), time 14.0 day
[2] = Photooxidative transformation of DHCHE assessed as increase in generation of CHE under blue light 450 nm/20 mW/cm^-2 irradiation at 10 uM by UV-vis absorption spectra analysis; assay type: functional
A-375 [3] = assay: Potentiation of DHSAN-mediated anticancer activity against human A-375 cells assessed as cell killing under blue light 450 nm/20 mW/cm^-2 irradiation at 10 uM after 10 min by MTT assay; assay type: functional, cell-based
A-375 [4] = assay: In vivo antitumor activity against human A-375 cells xenografted in mouse model assessed as potentiation of DHCHE-mediated anticancer activity by measuring decrease in Ki-67 expression at 1 mg/kg administered intratumoral injection for 14 days by […]; assay type: functional, organism-based; details: route it(Intratumoral), time 14.0 day
A-375 [5] = assay: Potentiation of DHCHE-mediated anticancer activity against human A-375 cells assessed as cell killing under blue light 450 nm/20 mW/cm^-2 irradiation at 10 uM after 10 min by MTT assay; assay type: functional, cell-based
A-375 [6] = assay: Potentiation of DHCHE-mediated apoptosis activity against human A-375 cells assessed as decrease in Bcl2 gene expression under blue light 450 nm/20 mW/cm^-2 irradiation at 10 uM after 10 min by quantitative reverse transcription PCR analysis; assay type: functional, cell-based
[7] = Toxicity in human A-375 cells xenografted in mouse model assessed as inflammation lesions in heart in presence of DHCHE under blue light 450 nm/20 mW/cm^-2 irradiation at 1 mg/kg administered intratumoral injection for 14 days by H and E staining based assay; assay type: organism-based; details: in vivo, other, 336 h, route it(Intratumoral), time 14 day
[8] = Toxicity in human A-375 cells xenografted in mouse model assessed as changes in BUN in presence of DHCHE under blue light 450 nm/20 mW/cm^-2 irradiation at 1 mg/kg administered intratumoral injection for 14 days by […]; assay type: organism-based; details: in vivo, other, 336 h, route it(Intratumoral), time 14 day
[9] = Toxicity in human A-375 cells xenografted in mouse model assessed as change in body weight in presence of DHCHE under blue light 450 nm/20 mW/cm^-2 irradiation at 1 mg/kg administered intratumoral injection for 14 days; assay type: organism-based; details: in vivo, other, 336 h, route it(Intratumoral), time 14 day
[10] = Photooxidative transformation of DHCHE assessed as decrease in DHCHE peak under blue light 450 nm/20 mW/cm^-2 irradiation at 0.1 mg/ml from 0 to 20 mins by HRMS spectra analysis; assay type: functional; details: time 0-20 min
A-375 [11] = assay: In vivo antitumor activity against human A-375 cells xenografted in mouse model assessed as potentiation of DHCHE-mediated anticancer activity by measuring increase in caspase 3 expression at 1 mg/kg administered intratumoral injection for 14 days by […]; assay type: functional, organism-based; details: route it(Intratumoral), time 14.0 day
[12] = Toxicity in human A-375 cells xenografted in mouse model assessed as inflammation lesions in lung in presence of DHCHE under blue light 450 nm/20 mW/cm^-2 irradiation at 1 mg/kg administered intratumoral injection for 14 days by H and E staining based assay; assay type: organism-based; details: in vivo, other, 336 h, route it(Intratumoral), time 14 day
A-375 [13] = assay: Potentiation of DHSAN-mediated apoptosis activity against human A-375 cells assessed as cell killing under blue light 450 nm/20 mW/cm^-2 irradiation at 10 uM after 30 min by CLSM imaging method; assay type: functional, cell-based
A-375 [14] = assay: Potentiation of DHNIT-mediated anticancer activity against human A-375 cells assessed as cell killing under blue light 450 nm/20 mW/cm^-2 irradiation at 10 uM after 10 min by MTT assay; assay type: functional, cell-based
[15] = Photooxidative transformation of DHNIT assessed as increase in generation of NIT under blue light 450 nm/20 mW/cm^-2 irradiation at 10 uM by UV-vis absorption spectra analysis; assay type: functional
[16] = Toxicity in human A-375 cells xenografted in mouse model assessed as inflammation lesions in intestine in presence of DHCHE under blue light 450 nm/20 mW/cm^-2 irradiation at 1 mg/kg administered intratumoral injection for 14 days by H and E staining based assay; assay type: organism-based; details: in vivo, other, 336 h, route it(Intratumoral), time 14 day
A-375 [17] = assay: Potentiation of DHCHE-mediated apoptosis activity against human A-375 cells assessed as increase in Bax gene expression under blue light 450 nm/20 mW/cm^-2 irradiation at 10 uM after 10 min by quantitative reverse transcription PCR analysis; assay type: functional, cell-based
A-375 [18] = assay: Potentiation of DHCHE-mediated apoptosis activity against human A-375 cells assessed as increase in Caspase 3 gene expression under blue light 450 nm/20 mW/cm^-2 irradiation at 10 uM after 10 min by quantitative reverse transcription PCR analysis; assay type: functional, cell-based
A-375 [19] = assay: Potentiation of DHCHE-mediated apoptosis activity against human A-375 cells assessed as cell killing under blue light 450 nm/20 mW/cm^-2 irradiation at 10 uM after 30 min by CLSM imaging method; assay type: functional; details: 0.5 h
[20] = Toxicity in human A-375 cells xenografted in mouse model assessed as inflammation lesions in liver in presence of DHCHE under blue light 450 nm/20 mW/cm^-2 irradiation at 1 mg/kg administered intratumoral injection for 14 days by H and E staining based assay; assay type: organism-based; details: in vivo, other, 336 h, route it(Intratumoral), time 14 day
A-375 [21] = assay: Photooxidative transformation of DHCHE in human A-375 cells assessed as increase in red fluorescence in nucleus under blue light 450 nm/20 mW/cm^-2 irradiation at 10 uM after 1 min by confocal laser scanning microscopy; assay type: ADME, cell-based; details: a-375, 1 min
[22] = Photooxidative transformation of DHCHE assessed as decrease in DHCHE peak under blue light 450 nm/20 mW/cm^-2 irradiation at 0.1 mg/ml by HPLC analysis (reference value: 82.7%); assay type: functional; parameters: scale not given: the % may be the effect or the level left
[23] = Photooxidative transformation of DHSAN assessed as increase in generation of SAN under blue light 450 nm/20 mW/cm^-2 irradiation at 10 uM by UV-vis absorption spectra analysis; assay type: functional
[24] = Toxicity in human A-375 cells xenografted in mouse model assessed as changes in total protein in presence of DHCHE under blue light 450 nm/20 mW/cm^-2 irradiation at 1 mg/kg administered intratumoral injection for 14 days by […]; assay type: organism-based; details: in vivo, other, 336 h, route it(Intratumoral), time 14 day
[25] = Toxicity in human A-375 cells xenografted in mouse model assessed as changes in AST in presence of DHCHE under blue light 450 nm/20 mW/cm^-2 irradiation at 1 mg/kg administered intratumoral injection for 14 days by […]; assay type: organism-based; details: in vivo, other, 336 h, route it(Intratumoral), time 14 day
A-375 [26] = assay: Potentiation of DHCHE-mediated apoptosis activity against human A-375 cells assessed as increase in P53 gene expression under blue light 450 nm/20 mW/cm^-2 irradiation at 10 uM after 10 min by quantitative reverse transcription PCR analysis; assay type: functional, cell-based
A-375 [27] = assay: In vivo antitumor activity against human A-375 cells xenografted in mouse model assessed as potentiation of DHCHE-mediated tumor growth inhibition under blue light 450 nm/20 mW/cm^-2 irradiation at 1 mg/kg administered intratumoral injection for 14 days; assay type: functional, organism-based; details: route it(Intratumoral), time 14.0 day
[28] = Photooxidative transformation of DHCHE assessed as decrease in DHCHE peak under blue light 450 nm/20 mW/cm^-2 irradiation at 0.1 mg/ml from 0 to 20 mins by NMR spectra analysis; assay type: functional; details: time 0-20 min
[29] = Toxicity in human A-375 cells xenografted in mouse model assessed as inflammation lesions in spleen in presence of DHCHE under blue light 450 nm/20 mW/cm^-2 irradiation at 1 mg/kg administered intratumoral injection for 14 days by H and E staining based assay; assay type: organism-based; details: in vivo, other, 336 h, route it(Intratumoral), time 14 day
[30] = Toxicity in human A-375 cells xenografted in mouse model assessed as inflammation lesions in kidney in presence of DHCHE under blue light 450 nm/20 mW/cm^-2 irradiation at 1 mg/kg administered intratumoral injection for 14 days by H and E staining based assay; assay type: organism-based; details: in vivo, other, 336 h, route it(Intratumoral), time 14 day
A-375 [31] = assay: Potentiation of DHNIT-mediated apoptosis activity against human A-375 cells assessed as cell killing under blue light 450 nm/20 mW/cm^-2 irradiation at 10 uM after 30 min by CLSM imaging method; assay type: functional, cell-based
[32] = Toxicity in human A-375 cells xenografted in mouse model assessed as changes in ALT in presence of DHCHE under blue light 450 nm/20 mW/cm^-2 irradiation at 1 mg/kg administered intratumoral injection for 14 days by […]; assay type: organism-based; details: in vivo, other, 336 h, route it(Intratumoral), time 14 day

Cc1cc2nc3c(=O)[nH]c(=O)nc-3n(C[C@H](O)[C@H](O)[C@H](O)CO)c2cc1C [RIBOFLAVIN]
61.7%: Activity (A-375 [19])
11.2%: Activity [22]
Non-Toxic: Activity [7] | Activity [8] | Activity [9] | Activity [12] | Activity [16] | Activity [20] | Activity [24] | Activity [25] | Activity [29] | Activity [30] | Activity [32]
active: Activity (A-375 [1]) | Activity (A-375 [3]) | Activity (A-375 [4]) | Activity (A-375 [5]) | Activity (A-375 [6]) | Activity (A-375 [11]) | Activity (A-375 [13]) | Activity (A-375 [14]) | Activity (A-375 [17]) | Activity (A-375 [18]) | Activity (A-375 [26]) | Activity (A-375 [27]) | Activity (A-375 [31])
Metabolite_Detected: Drug metabolism (A-375 [21])
Metabolite detected: Drug metabolism [2] | Drug metabolism [10] | Drug metabolism [15] | Drug metabolism [23] | Drug metabolism [28]
